{"source": "ChEMBL document CHEMBL6092156", "about": "“Design and development of a series of 4-(piperazin-1-yl)pyrimidines as irreversible menin inhibitors” (Eur J Med Chem, 2024)", "key": {"MV4-11 [1]": {"system": "MV4-11", "test": "Antiproliferative activity against human MV4-11 cells harboring MLL-AF4 assessed as cell growth inhibition incubated for 7 days by MTS assay", "format": "functional, cell-based", "conditions": "MV4-11, 168 h"}, "REH [2]": {"system": "REH", "test": "Antiproliferative activity against human REH cells assessed as cell growth inhibition incubated for 7 days by MTS assay", "format": "functional, cell-based", "conditions": "168 h"}, "MOLM-14": {"system": "MOLM-14", "test": "Antiproliferative activity against human MOLM-14 cells harboring MLL-AF9 assessed as cell growth inhibition incubated for 7 days by MTS assay", "format": "functional, cell-based", "conditions": "MOLM-14, 168 h"}, "RS4-11": {"system": "RS4-11", "test": "Antiproliferative activity against human RS4;11 cells harboring MLL-AF4 assessed as cell growth inhibition incubated for 7 days by MTS assay", "format": "functional, cell-based", "conditions": "RS4-11, 168 h"}, "[3]": {"test": "Suppression of MEN1 gene transcription in human MV4-11 cells assessed as protein synthesis by measuring fold change at 10 uM incubated for 48 hrs relative to control", "format": "functional"}, "HL-60": {"system": "HL-60", "test": "Antiproliferative activity against human HL-60 cells assessed as cell growth inhibition incubated for 7 days by MTS assay", "format": "functional, cell-based", "conditions": "HL-60, 168 h"}, "[4]": {"test": "Solubility of compound in water by HPLC analysis", "format": "physicochemical"}, "MV4-11 [5]": {"system": "MV4-11", "test": "Downregulation of MEIS1 expression level in human MV4-11 cells at 10 uM incubated for 48 hrs by qRT-PCR analysis", "format": "functional, cell-based"}, "MV4-11 [6]": {"system": "MV4-11", "test": "Antiproliferative activity against human MV4-11 cells assessed as reduction in cell viability at 50 nM incubated for 7 days and measured after compound washout relative to control", "format": "functional", "conditions": "time 7 day"}, "MV4-11 [7]": {"system": "MV4-11", "test": "Antiproliferative activity against human MV4-11 cells assessed as reduction in cell viability incubated for 7 days and measured after compound washout", "format": "functional, cell-based", "conditions": "time 7.0 day"}, "MOLM-13": {"system": "MOLM-13", "test": "Antiproliferative activity against human MOLM-13 cells harboring MLL-AF9 assessed as cell growth inhibition incubated for 7 days by MTS assay", "format": "functional, cell-based", "conditions": "MOLM-13, 168 h"}, "[8]": {"test": "Suppression of MEN1 gene transcription in human MV4-11 cells assessed as protein synthesis by measuring fold change at 10 uM incubated for 48 hrs in presence of 20 nM carfilzomib relative to control", "format": "functional"}, "MV4-11 [9]": {"system": "MV4-11", "test": "Antiproliferative activity against human MV4-11 cells assessed as reduction in cell viability at 100 nM preincubated for 7 days and followed by compound washout and measured on day 14 after compound readdition", "format": "functional, cell-based", "conditions": "time 21.0 day"}, "MV4-11 [10]": {"system": "MV4-11", "test": "Antitumor activity against human MV4-11 cells xenografted in nu/nu mouse model assessed as tumor growth rate at 20 mg/kg, ip bid for 15 days measured twice a week during compound dosing by caliper method relative to control", "format": "functional", "conditions": "time 15 day"}, "REH [11]": {"system": "REH", "test": "Downregulation of HOXA9 expression level in human REH cells at 10 uM incubated for 48 hrs by qRT-PCR analysis", "format": "functional, cell-based"}, "[12]": {"test": "AUClast in female ICR mouse at 5 mg/kg, ip by LC-MS/MS analysis", "format": "ADME, organism-based", "conditions": "in vivo"}, "[13]": {"system": "Acute myeloid leukemic cell", "test": "Induction of cell differentiation in human acute myeloid leukemia patient-derived cells assessed as increase in CD11b at 150 nM incubated for 7 days by cytoFLEX flow cytometric analysis", "format": "functional, cell-based", "conditions": "time 7.0 day"}, "[14]": {"test": "Suppression of MEN1 gene transcription in human MV4-11 cells assessed as protein synthesis by measuring fold change at 10 uM incubated for 12 hrs in presence of 50 ug/ml cycloheximide relative to control", "format": "functional"}, "MV4-11 [15]": {"system": "MV4-11", "test": "Antiproliferative activity against human menin-sensitive MV4-11 cells assessed as inhibition of cell growth incubated for 7 days by MTS assay", "format": "functional, cell-based", "conditions": "MV4-11, 168 h"}, "[16]": {"test": "Antiproliferative activity against human MINO cells assessed as cell growth inhibition incubated for 7 days by MTS assay", "format": "functional, cell-based", "conditions": "168 h"}, "MV4-11 [17]": {"system": "MV4-11", "test": "Antitumor activity against human MV4-11 cells xenografted in nu/nu mouse model assessed as tumor growth rate at 10 mg/kg, ip bid for 15 days measured twice a week during compound dosing by caliper method relative to control", "format": "functional", "conditions": "time 15 day"}, "[18]": {"target": "Menin/Histone-lysine N-methyltransferase MLL (Homo sapiens, UniProt O00255)", "sequence (O00255 whole entry)": "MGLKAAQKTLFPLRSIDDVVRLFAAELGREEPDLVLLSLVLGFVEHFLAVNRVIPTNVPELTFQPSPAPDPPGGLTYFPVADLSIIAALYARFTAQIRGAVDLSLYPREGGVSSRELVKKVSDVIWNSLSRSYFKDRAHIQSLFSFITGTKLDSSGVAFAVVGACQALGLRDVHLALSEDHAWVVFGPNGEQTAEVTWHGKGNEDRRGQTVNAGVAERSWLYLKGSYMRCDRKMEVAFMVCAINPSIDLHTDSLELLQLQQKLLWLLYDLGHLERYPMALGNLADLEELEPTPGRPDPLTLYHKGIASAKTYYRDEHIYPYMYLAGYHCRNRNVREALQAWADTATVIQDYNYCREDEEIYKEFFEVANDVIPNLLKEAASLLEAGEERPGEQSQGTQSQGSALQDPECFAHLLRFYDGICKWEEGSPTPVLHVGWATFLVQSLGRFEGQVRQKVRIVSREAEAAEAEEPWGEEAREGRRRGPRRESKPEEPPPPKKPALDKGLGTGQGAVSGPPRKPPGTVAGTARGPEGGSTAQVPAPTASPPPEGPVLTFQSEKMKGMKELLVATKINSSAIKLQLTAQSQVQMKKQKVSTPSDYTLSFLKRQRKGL", "sequence (Q03164 1-2718 partner limits assumed)": "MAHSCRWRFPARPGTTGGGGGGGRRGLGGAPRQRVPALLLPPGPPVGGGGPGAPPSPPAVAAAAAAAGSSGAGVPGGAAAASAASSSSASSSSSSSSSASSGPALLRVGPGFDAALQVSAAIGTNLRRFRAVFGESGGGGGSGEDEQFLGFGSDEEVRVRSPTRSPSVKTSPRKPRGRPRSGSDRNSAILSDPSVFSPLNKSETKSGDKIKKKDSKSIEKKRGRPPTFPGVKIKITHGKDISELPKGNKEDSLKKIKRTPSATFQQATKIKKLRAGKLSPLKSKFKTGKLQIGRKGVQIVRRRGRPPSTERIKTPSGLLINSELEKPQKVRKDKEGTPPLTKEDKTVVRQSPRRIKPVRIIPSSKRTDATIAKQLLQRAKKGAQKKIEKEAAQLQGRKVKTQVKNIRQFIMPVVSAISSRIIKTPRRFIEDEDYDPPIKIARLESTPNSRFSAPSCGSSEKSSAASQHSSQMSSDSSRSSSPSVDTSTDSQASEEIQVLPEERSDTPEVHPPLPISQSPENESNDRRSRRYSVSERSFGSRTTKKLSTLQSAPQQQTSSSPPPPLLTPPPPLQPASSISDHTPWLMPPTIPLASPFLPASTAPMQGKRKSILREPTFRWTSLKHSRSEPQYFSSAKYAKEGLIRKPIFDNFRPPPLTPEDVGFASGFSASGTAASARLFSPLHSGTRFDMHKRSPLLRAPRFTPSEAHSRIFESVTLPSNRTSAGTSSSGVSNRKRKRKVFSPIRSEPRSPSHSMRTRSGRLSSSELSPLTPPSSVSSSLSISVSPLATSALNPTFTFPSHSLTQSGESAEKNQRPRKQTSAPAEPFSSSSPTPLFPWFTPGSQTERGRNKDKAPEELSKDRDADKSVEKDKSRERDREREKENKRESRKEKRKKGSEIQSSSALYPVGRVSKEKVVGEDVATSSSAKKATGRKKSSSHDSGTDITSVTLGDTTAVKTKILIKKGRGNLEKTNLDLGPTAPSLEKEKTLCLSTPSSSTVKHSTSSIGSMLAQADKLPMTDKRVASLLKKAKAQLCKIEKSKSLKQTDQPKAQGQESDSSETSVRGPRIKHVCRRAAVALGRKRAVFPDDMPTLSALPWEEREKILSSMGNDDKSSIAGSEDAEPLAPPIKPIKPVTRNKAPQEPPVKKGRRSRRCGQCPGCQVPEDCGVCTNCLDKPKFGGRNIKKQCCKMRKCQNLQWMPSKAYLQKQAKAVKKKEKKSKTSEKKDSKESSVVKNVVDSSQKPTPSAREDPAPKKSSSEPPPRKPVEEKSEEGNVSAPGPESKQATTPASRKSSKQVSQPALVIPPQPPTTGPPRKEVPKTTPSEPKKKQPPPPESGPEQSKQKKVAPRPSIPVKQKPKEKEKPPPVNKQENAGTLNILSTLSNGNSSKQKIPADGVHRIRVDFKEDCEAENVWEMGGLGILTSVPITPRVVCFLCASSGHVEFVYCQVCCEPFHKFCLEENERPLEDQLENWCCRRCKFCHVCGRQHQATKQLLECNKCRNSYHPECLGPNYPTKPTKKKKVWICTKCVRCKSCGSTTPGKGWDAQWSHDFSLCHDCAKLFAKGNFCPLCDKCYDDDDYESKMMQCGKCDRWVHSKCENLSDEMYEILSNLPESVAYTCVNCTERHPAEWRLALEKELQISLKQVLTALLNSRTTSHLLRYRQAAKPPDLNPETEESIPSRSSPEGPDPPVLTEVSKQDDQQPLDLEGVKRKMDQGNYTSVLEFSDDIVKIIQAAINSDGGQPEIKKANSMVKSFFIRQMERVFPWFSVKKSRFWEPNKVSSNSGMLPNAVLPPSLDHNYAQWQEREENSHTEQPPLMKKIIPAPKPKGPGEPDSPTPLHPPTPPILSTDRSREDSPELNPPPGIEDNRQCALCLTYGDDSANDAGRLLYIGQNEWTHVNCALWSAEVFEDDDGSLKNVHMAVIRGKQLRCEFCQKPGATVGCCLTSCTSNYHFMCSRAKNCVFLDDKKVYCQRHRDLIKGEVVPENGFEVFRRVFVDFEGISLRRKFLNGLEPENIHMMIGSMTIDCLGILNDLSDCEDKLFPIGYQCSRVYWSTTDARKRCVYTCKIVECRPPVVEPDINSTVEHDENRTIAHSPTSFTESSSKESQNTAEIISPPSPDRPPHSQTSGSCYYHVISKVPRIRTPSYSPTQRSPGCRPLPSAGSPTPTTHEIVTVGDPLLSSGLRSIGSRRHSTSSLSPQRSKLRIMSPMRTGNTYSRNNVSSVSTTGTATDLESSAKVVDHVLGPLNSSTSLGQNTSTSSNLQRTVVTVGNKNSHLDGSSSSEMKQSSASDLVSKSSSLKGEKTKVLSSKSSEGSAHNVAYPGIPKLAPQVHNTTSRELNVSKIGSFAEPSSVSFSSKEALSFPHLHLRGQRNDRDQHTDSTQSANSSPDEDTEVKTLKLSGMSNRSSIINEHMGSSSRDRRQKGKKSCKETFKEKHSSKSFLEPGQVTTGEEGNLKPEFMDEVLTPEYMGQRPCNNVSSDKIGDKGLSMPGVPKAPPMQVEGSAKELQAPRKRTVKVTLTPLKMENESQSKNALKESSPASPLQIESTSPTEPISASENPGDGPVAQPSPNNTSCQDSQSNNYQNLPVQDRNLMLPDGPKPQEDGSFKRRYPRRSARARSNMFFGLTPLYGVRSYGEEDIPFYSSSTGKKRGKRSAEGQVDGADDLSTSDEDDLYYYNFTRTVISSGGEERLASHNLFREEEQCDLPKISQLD", "sequence (Q03164 2719-3969 partner limits assumed)": "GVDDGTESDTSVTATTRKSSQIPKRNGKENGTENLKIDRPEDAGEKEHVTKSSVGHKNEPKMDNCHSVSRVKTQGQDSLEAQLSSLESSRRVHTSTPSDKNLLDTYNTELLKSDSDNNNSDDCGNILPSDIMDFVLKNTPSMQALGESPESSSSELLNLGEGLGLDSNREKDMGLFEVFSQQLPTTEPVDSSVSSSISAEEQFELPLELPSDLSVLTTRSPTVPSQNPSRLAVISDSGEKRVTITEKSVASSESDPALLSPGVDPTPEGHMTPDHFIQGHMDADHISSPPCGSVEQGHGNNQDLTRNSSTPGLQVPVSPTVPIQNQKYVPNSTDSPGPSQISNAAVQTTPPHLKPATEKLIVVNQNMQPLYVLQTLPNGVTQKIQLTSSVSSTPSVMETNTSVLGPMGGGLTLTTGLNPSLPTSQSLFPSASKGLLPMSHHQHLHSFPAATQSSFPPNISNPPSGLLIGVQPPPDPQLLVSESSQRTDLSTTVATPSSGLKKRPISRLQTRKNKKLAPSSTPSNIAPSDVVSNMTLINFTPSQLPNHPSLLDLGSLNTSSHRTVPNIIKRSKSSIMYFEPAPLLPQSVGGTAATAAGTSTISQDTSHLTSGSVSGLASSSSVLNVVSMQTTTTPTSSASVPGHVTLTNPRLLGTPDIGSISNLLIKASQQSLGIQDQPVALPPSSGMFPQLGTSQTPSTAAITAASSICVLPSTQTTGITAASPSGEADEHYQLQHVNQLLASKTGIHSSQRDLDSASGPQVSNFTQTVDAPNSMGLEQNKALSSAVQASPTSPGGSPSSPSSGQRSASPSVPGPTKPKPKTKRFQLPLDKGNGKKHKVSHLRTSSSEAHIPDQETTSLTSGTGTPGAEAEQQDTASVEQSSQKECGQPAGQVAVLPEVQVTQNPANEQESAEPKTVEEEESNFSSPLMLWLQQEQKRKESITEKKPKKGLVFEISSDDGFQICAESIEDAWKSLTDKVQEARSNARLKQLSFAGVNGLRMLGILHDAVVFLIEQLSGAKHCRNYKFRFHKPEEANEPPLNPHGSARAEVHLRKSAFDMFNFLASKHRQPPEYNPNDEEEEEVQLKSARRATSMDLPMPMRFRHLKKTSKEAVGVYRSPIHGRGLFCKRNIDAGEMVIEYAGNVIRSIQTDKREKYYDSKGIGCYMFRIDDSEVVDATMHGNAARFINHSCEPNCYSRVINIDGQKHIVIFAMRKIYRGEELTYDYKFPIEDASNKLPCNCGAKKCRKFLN", "test": "Inhibition of menin (unknown origin)/N-terminal FITC-labeled MLL1 peptide (unknown origin) interaction incubated for 30 min by fluorescence polarization assay", "format": "protein assay"}, "[19]": {"test": "Toxicity in nu/nu mouse model assessed as body weight loss at 10 to 20 mg/kg, ip bid for 15 days measured twice a week during compound dosing", "format": "organism-based", "conditions": "in vivo, 360 h, dose 10-20 mg/kg, time 15 day"}, "MV4-11 [20]": {"system": "MV4-11", "test": "Inhibition of menin protein expression in human MV-4-11 cells measured after 48 hrs incubation by Western blot analysis", "format": "functional, cell-based", "conditions": "dose 1-37 µM"}, "[21]": {"test": "Suppression of MEN1 gene transcription in human MV4-11 cells assessed as protein synthesis by measuring fold change at 10 uM incubated for 24 hrs in presence of 50 ug/ml cycloheximide relative to control", "format": "functional"}, "[22]": {"test": "Half life in female ICR mouse at 5 mg/kg, ip by LC-MS/MS analysis", "format": "ADME, organism-based", "conditions": "in vivo"}, "[23]": {"test": "Tmax in female ICR mouse at 5 mg/kg, ip by LC-MS/MS analysis", "format": "ADME, organism-based", "conditions": "in vivo"}, "[24]": {"test": "Cytotoxicity against human PBMC cells assessed as cell viability incubated for 7 days by MTS assay", "format": "toxicity, cell-based"}, "REH [25]": {"system": "REH", "test": "Downregulation of MEIS1 expression level in human REH cells at 10 uM incubated for 48 hrs by qRT-PCR analysis", "format": "functional, cell-based"}, "MV4-11 [26]": {"system": "MV4-11", "test": "Downregulation of HOXA9 expression level in human MV4-11 cells at 10 uM incubated for 48 hrs by qRT-PCR analysis", "format": "functional, cell-based"}, "[27]": {"test": "Observed MRTinfinity in female ICR mouse at 5 mg/kg, ip by LC-MS/MS analysis", "format": "ADME, organism-based", "conditions": "in vivo"}, "MV4-11 [28]": {"system": "MV4-11", "test": "Antiproliferative activity against human MV4-11 cells assessed as reduction in cell viability at 80 nM preincubated for 7 days and followed by compound washout and measured on day 14 after compound readdition relative to control", "format": "functional", "conditions": "time 21 day"}, "[29]": {"test": "Suppression of MEN1 gene transcription in human MV4-11 cells assessed as protein synthesis by measuring fold change at 10 uM incubated for 48 hrs in presence of 50 ug/ml cycloheximide relative to control", "format": "functional"}, "MV4-11 [30]": {"system": "MV4-11", "test": "Antiproliferative activity against human MV4-11 cells assessed as reduction in cell viability preincubated for 7 days and followed by compound washout and measured on day 14 after compound readdition", "format": "functional, cell-based", "conditions": "time 21.0 day"}, "[31]": {"test": "Suppression of MEN1 gene transcription in human MV4-11 cells assessed as protein synthesis by measuring fold change at 10 uM incubated for 36 hrs in presence of 50 ug/ml cycloheximide relative to control", "format": "functional"}, "MV4-11 [32]": {"system": "MV4-11", "test": "Suppression of MEN1 gene transcription in human MV4-11 cells incubated for 48 hrs by relative gene expression assay", "format": "functional, cell-based"}, "REH [33]": {"system": "REH", "test": "Antiproliferative activity against human menin-insensitive REH cells assessed as inhibition of cell growth incubated for 7 days by MTS assay", "format": "functional, cell-based", "conditions": "168 h"}, "[34]": {"test": "Cmax in female ICR mouse at 5 mg/kg, ip by LC-MS/MS analysis", "format": "ADME, organism-based", "conditions": "in vivo"}, "MV4-11 [35]": {"system": "MV4-11", "test": "Antitumor activity against human MV4-11 cells xenografted in ip treated nu/nu mouse model assessed as tumor growth inhibition measured upto 15 days", "format": "functional, organism-based", "conditions": "dose 10-20 mg/kg, time <= 15.0 day"}, "[36]": {"test": "Observed AUCinfinity in female ICR mouse at 5 mg/kg, ip by LC-MS/MS analysis", "format": "ADME, organism-based", "conditions": "in vivo"}}, "note": "Active and inactive are the calls of the source. The calls are words filed in the database; no cut-off is given here.", "data": [{"smiles": "CCN(C(=O)c1cc(F)ccc1Nc1cncnc1N1CCN(CC2CN(c3ccc(S(=O)(=O)C4CN(C(=O)/C=C/CN(C)C)C4)cc3)C2)C(C)C1)C(C)C", "note": "(stereo not given)", "values": [{"measurement": "IC50", "setting": "MV4-11 [1]", "result": 49, "unit": "nM"}, {"measurement": "IC50", "setting": "REH [2]", "result": "> 3000", "unit": "nM"}, {"measurement": "IC50", "setting": "MOLM-14", "result": 103, "unit": "nM"}, {"measurement": "IC50", "setting": "RS4-11", "result": 272, "unit": "nM"}, {"measurement": "fold change (FC)", "setting": "[3]", "result": 0.08}, {"measurement": "IC50", "setting": "HL-60", "result": "> 3000", "unit": "nM"}, {"measurement": "solubility", "setting": "[4]", "result": 1230, "unit": "µg/mL"}, {"measurement": "Activity", "setting": "MV4-11 [5]", "result": "Active"}, {"measurement": "Activity", "setting": "MV4-11 [6]", "result": 100, "unit": "%"}, {"measurement": "Activity", "setting": "MV4-11 [7]", "result": "inactive"}, {"measurement": "IC50", "setting": "MOLM-13", "result": 221, "unit": "nM"}, {"measurement": "fold change (FC)", "setting": "[8]", "result": 0.14}, {"measurement": "Activity", "setting": "MV4-11 [9]", "result": "Active"}, {"measurement": "Activity", "setting": "MV4-11 [10]", "result": 35.85, "unit": "%"}, {"measurement": "Activity", "setting": "REH [11]", "result": "Active; Little Impact Observed"}, {"measurement": "AUC(0-t)", "setting": "[12]", "result": 1150, "unit": "ng·h/mL"}, {"measurement": "Activity", "setting": "[13]", "result": "Active"}, {"measurement": "fold change (FC)", "setting": "[14]", "result": 0.69}, {"measurement": "IC50", "setting": "MV4-11 [15]", "result": 30, "unit": "nM"}, {"measurement": "IC50", "setting": "[16]", "result": "> 3000", "unit": "nM"}, {"measurement": "Activity", "setting": "MV4-11 [17]", "result": 55.64, "unit": "%"}, {"measurement": "IC50", "setting": "[18]", "result": 18.2, "unit": "nM"}, {"measurement": "Activity", "setting": "[19]", "result": "Non-toxic"}, {"measurement": "Activity", "setting": "MV4-11 [20]", "result": "Dose-dependent-effect; Significantly Greater Inhibition At 10 Um Than That Of Sndx-5613"}, {"measurement": "fold change (FC)", "setting": "[21]", "result": 0.31}, {"measurement": "half-life", "setting": "[22]", "result": 1.59, "unit": "h"}, {"measurement": "Tmax", "setting": "[23]", "result": 0.25, "unit": "h"}, {"measurement": "IC50 at 7 days", "setting": "[24]", "result": "> 3000", "unit": "nM"}, {"measurement": "Activity", "setting": "REH [25]", "result": "Active; Little Impact Observed"}, {"measurement": "Activity", "setting": "MV4-11 [26]", "result": "Active"}, {"measurement": "MRT inf", "setting": "[27]", "result": 1.85, "unit": "h"}, {"measurement": "Activity", "setting": "MV4-11 [28]", "result": 100, "unit": "%"}, {"measurement": "fold change (FC)", "setting": "[29]", "result": 0.25}, {"measurement": "Activity", "setting": "MV4-11 [30]", "result": "Dose-dependent-effect"}, {"measurement": "fold change (FC)", "setting": "[31]", "result": 0.21}, {"measurement": "Activity", "setting": "MV4-11 [32]", "result": "Active"}, {"measurement": "IC50", "setting": "REH [33]", "result": 8400, "unit": "nM"}, {"measurement": "Cmax", "setting": "[34]", "result": 980, "unit": "ng/mL"}, {"measurement": "Activity", "setting": "MV4-11 [35]", "result": "Dose-dependent-effect"}, {"measurement": "AUC(0-inf)", "setting": "[36]", "result": 1230, "unit": "ng·h/mL"}]}]}
